# Experimental data: patent publication US6756480B2, “Modulators of receptors for parathyroid hormone and parathyroid hormone-related protein” (Amgen Inc., priority 2000, dated 2004)
# How the values were obtained:
# mice [1] = details: non-Fc conjugated peptide, stated as usual behaviour; cited from earlier work
# [2] = tested on: rat osteoblast-like ROS 17/2.8 cells; experiment: cAMP accumulation assay (IBMX, 15 minute challenge, ELISA); assay type: cell-based; details: 15 minutes
# Method: Cultures were treated with the phosphodiesterase inhibitor IBMX and then challenged for 15 minutes with various PTH fragments. CAMP was measured by ELISA.
# We tested the relative ability of PTH-Fc constructs to stimulate cAMP accumulation in rat osteoblast-like ROS 17/2.8 cells. Cultures were treated with the phosphodiesterase inhibitor IBMX to promote the accumulation of cAMP. Cultures were then challenged for 15 minutes with either vehicle (PBS), or various PTH constructs.
# mice [3] = experiment: Hypercalcemia assay: murine hypercalcemia model, single SC injection, blood ionized calcium; assay type: in vivo; details: single SC injection, equimolar doses, blood ionized calcium
# Method: Mice were challenged with vehicle (PBS, —X—), or with PTH-(1-34) (open symbols) or with PTH-(1-34)-Fc (closed symbols). Doses were 156 nmol/kg (circles), 469 nmol/kg (triangles) or 1,560 nmol/kg (squares). Data represent group means, n=6 mice/group.
# We tested the potency and duration of effect of PTH-(1-34)-Fc in a murine hypercalcemia model. Briefly, mice were injected once SC with varying doses of PTH-(1-34) or PTH-(1-34)-Fc, and peripheral blood was collected from the retroorbital sinus for determination of blood ionized calcium. The half-life and the potency of PTH-(1-34)-Fc was greater than that of PTH-(1-34), as evidenced by the sustained hypercalcemic response of mice to the former agent (FIG. 4). Hypercalcemia induced by PTH-(1-34) persisted for 6-24 h, while equimolar doses of PTH-(1-34)-Fc caused more sustained hypercalcemia (48-72 h). This duration of response is consistent with greater half-life of the PTH-(1-34)-Fc construct vs. PTH-(1-34).
# male BDF1 mice = experiment: Monotherapy in adult mice: twice-weekly PTH-(1-34)-Fc versus daily PTH-(1-34), tibial BMD by pQCT; assay type: in vivo; details: 3 weeks, PTH-(1-34)-Fc twice weekly, various doses
# Method: Daily PTH [PTH-(1-34)] was given at 80 μg/kg/day (20 nmol/kg/day).
# Briefly, male BDF1 mice (4 months of age) were treated twice per week by subcutaneous injection with various doses of PTH-(1-34)-Fc or with vehicle (PBS). Other mice were treated daily with SC injections of PTH-(1-34) at a dose of 80 μg/kg/day (20 nmol/kg/day), a treatment regimen which is optimal for increasing bone mass in rodents (M. Gunness-Hey and J. M. Hock, Metab. Bone Dis. & Rel. Res. 5:177-181, 1984). After 3 weeks, mice were sacrificed and tibiae were analyzed for bone mineral density (BMD) via pQCT (FIG. 10).
# mice [4] = experiment: Mouse bioassay: SC injection days 0, 5, 10; clinical chemistry (calcium, AP, TRAP) and tibial pQCT; assay type: in vivo
# Method: Peripheral blood was obtained daily for 3 days following single subcutaneous injections of the indicated compounds.
# Peripheral quantitative computed tomography (pQCT) was performed on the proximal tibial metaphysis of mice on day 15, after injections of PTH constructs on day 0, 5 and 10.
# We then tested the effects of PTH-(1-34), PTH-(1-34)-Fc, PTH-(1-31)-Fc and PTH-(1-30)-Fc in mice. Four week old male mice were injected on days 0, 5, and 10 with vehicle or with PTH fragments, by SC injection. Peripheral blood was obtained for clinical chemistry at 24, 48, and 72 h. Mice were killed on day 15, vertebrae, tibiae and femurs were harvested for histology and one tibia was collected for bone density measurements (peripheral quantitative computed tomography, pQCT). Clinical chemistry endpoints included total serum calcium, serum alkaline phosphatase (AP, a marker of osteoblast activity), and serum tartrate-resistant acid phosphatase (TRAP, a marker of osteoclast activity). For each animal, the ratio of AP:TRAP was calculated as an index of relative osteoblast activity compared to osteoclast activity. A higher AP:TRAP ratio would indicate a potentially more anabolic agent.
# Sprague Dawley (SD) rats = experiment: Anabolic assay: lumbar (L3) BMD by DEXA, PTH constructs with or without OPG-Fc; assay type: in vivo; details: 6-month-old male SD rats, DEXA Day 7; OPG-Fc 1 mg/kg once; PTH-(1-34) 20 nMoles/kg x3; PTH-(1-34)-Fc 60 nMoles/kg once
# Method: Briefly, 6-month-old male Sprague Dawley (SD) rats were divided into groups of 6. Baseline bone mineral density (BMD) was determined in the third lumbar vertebra (L3) of all rats by dual-energy X-ray absorptiometry (DEXA) (Day 0). Rats were then treated according to the following schedule:
# Group 1: Vehicle controls (PBS, injected SC, Days 1, 3, and 5)
# Group 2: OPG-Fc, single SC injection (1 mg/kg) on Day 1
# Group 3: PTH-(1-34), SC injections on Days 1, 3, and 5, at 20 nMoles PTH/kg/injection. This represents an optimal anabolic PTH regimen.
# Group 4: Same as group 3, but with a single OPG-Fc injection on Day 1.
# Group 5: Single SC injection of PTH-(1-34)-Fc at 60 nMoles/kg, on Day 1. This represents a molar dose which is equivalent to the total dose of PTH-(1-34) received by group 3, but in a single injection.
# Group 6: Same as group 5, but with a single OPG-Fc injection (SC, 1 mg/kg) on Day 1.
# DEXA of the lumbar spine was performed again on Day 7 to evaluate changes in BMD. […] The anabolic effect of a single treatment with PTH-(1-34)-Fc plus OPG-Fc was greater than that induced by multiple injections of PTH-(1-34), with or without OPG-Fc co-treatment.
# Normal 6 month old male rats were treated with PTH-Fc or PTH or vehicle by a single SC injection. Some rats also received a single SC injection of OPG. BMD was determined 7 days later by DEXA. Data represent means+SD, N=6 rats/group.
substance,measurement,setting,value
"human PTH(1-34) [PTH-(1-34), reference compound]",duration of transient increase in serum calcium normally caused,mice [1],12 h
same,potency in cAMP accumulation relative to PTH-(1-31)-Fc and PTH-(1-30)-Fc,[2],slightly more potent
same,duration of hypercalcemia,mice [3],6 to 24 h
same,cancellous BMD compared to vehicle,male BDF1 mice; PTH-(1-34) daily 80 μg/kg/day,significantly increased
same,total tibial BMD compared to vehicle,male BDF1 mice; PTH-(1-34) daily 80 μg/kg/day,significantly increased
same,cortical BMD in the tibia,male BDF1 mice; PTH-(1-34) daily,not significantly enhanced
same,calculated AP:TRAP ratio,mice [4]; 300 nmoles/kg,unchanged
same,serum AP (osteoblast marker),"mice [4]; 300 nmoles/kg (given for PTH-(1-34)-Fc), 72 h",unchanged
same,serum calcium,"mice [4]; 300 nmoles/kg SC (equimolar), 24, 48, 72 h",not significantly different
same,bone mineral density (proximal tibial metaphysis),"mice [4]; 300 nmoles/kg on day 0, 5, 10, pQCT day 15",modest (non-significant) anabolic effect
same,serum TRAP (osteoclast marker),"mice [4]; mice, after single SC injection",not significantly changed
same,BMD in L3 compared to PBS-treated rats,Sprague Dawley (SD) rats,increased modestly
